Measurements: paper PMC5623949, “Exploiting the 2-Amino-1,3,4-thiadiazole Scaffold To Inhibit Trypanosoma brucei Pteridine Reductase in Support of Early-Stage Drug Discovery” (ACS Omega, 2017)
Like-named read-outs stand apart in the source and are kept apart here.

Tests used:
TbPTR1 = molecular target: T1, TbPTR1 (Trypanosoma brucei brucei, UniProt O76290); assay: biochemical; conditions: for inhibition at 50 µM: 50 μM compound, read-out: % Inhibition TbPTR1 at 50 μM; for IC50: dose-response 0.001-100 μM
T1 construct: made in house
T1 sequence (O76290 1-268): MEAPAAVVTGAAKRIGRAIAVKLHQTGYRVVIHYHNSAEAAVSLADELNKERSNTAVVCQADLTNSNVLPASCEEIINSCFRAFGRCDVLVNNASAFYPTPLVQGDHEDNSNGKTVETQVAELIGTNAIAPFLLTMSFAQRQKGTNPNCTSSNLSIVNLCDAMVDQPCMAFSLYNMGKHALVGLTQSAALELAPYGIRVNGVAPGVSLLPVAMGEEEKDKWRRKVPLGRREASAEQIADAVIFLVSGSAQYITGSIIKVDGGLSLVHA

[1] = tested on: T. b. brucei Lister 427 bloodstream forms; assay: In vitro activity against T. brucei (HTS SYBR Green I growth inhibition assay); assay type: cell-based, Trypanosoma brucei brucei; conditions: standard deviation within ±10% of the value; for inhibition at 50 µM: read-out: % Inhibition T. brucei at 50 μM
hERG = molecular target: T2, hERG (Homo sapiens, UniProt Q12809); parameters: hERG inhibition liability assay
T2 construct: gene KCNH2

CYP1A2 = molecular target: T3, CYP1A2 (Homo sapiens, UniProt P05177); assay: in vitro; parameters: cytochrome P450 isoform inhibition liability assay
T3 sequence (P05177 1-516): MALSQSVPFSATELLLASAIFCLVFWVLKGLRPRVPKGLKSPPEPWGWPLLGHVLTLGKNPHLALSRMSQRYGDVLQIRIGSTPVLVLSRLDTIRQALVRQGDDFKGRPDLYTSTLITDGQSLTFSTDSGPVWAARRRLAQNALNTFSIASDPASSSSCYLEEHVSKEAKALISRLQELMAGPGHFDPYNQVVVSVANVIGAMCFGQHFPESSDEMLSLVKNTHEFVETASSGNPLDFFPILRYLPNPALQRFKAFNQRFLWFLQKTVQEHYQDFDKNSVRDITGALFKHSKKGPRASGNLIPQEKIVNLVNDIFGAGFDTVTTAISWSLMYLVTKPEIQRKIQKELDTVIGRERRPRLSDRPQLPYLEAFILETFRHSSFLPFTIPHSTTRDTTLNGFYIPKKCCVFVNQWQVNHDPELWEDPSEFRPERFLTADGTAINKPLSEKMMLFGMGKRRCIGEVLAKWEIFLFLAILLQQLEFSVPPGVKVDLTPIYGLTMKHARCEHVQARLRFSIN

CYP2C19 = CYP2C19 (Homo sapiens, UniProt P33261); assay: in vitro; parameters: cytochrome P450 isoform inhibition liability assay
CYP2C9 = CYP2C9 (Homo sapiens, UniProt P11712); assay: in vitro; parameters: cytochrome P450 isoform inhibition liability assay
CYP2D6 = CYP2D6 (Homo sapiens, UniProt P10635); assay: in vitro; parameters: cytochrome P450 isoform inhibition liability assay
CYP3A4 = CYP3A4 (Homo sapiens, UniProt P08684); assay: in vitro; parameters: cytochrome P450 isoform inhibition liability assay
hDHFR = molecular target: T4, hDHFR (Homo sapiens, UniProt P00374); assay: biochemical; parameters: human DHFR enzyme inhibition
T4 construct: gene DHFR
T4 sequence (P00374 1-187): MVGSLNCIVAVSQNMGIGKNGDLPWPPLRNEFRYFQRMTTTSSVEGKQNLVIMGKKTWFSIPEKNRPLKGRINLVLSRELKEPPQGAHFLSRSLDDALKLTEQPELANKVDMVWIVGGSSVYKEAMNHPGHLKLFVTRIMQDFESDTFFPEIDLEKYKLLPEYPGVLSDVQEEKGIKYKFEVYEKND
Experimental: Figure 10 Summary heat map of the in vitro assays to determine possible liability issues for all synthesized compounds. Assays were performed to assess inhibition of hERG and five CYP isoforms (1A2, 2C9, 2C19, 2D6, and 3A4), growth inhibition of A549 and W1-38 cell lines, and mitochondrial toxicity at 10 μM. The hDHFR inhibition was determined at 100 μM. The data, expressed as percentage values, were organized by adopting a color code for rapid and intuitive visualization. The ideal compound should have all tiles blue, indicating a safe toxicological profile for progressing into the development pipeline. The cells are colored from blue (100% of cell growth at the tested concentration) to red (0% of cell growth at the tested concentration) for A549 and W1-38 and from blue (0% of inhibitory activity at the tested concentration) to red (100% of inhibitory activity at the tested concentration) for CYP isoforms, hERG, hDHFR, and mitochondrial toxicity.

786-O = assay: cells; parameters: mitochondrial toxicity in 786-O renal carcinoma cells; conditions: Homo sapiens, 786-0; mitochondrial toxicity
in vitro [2] = assay: in vitro; parameters: cytotoxicity, per cent cell growth of A549 cells; conditions: human, a549 cells; read-out: % cell growth A549 at 10uM
in vitro [3] = assay: in vitro; parameters: cytotoxicity, per cent cell growth of WI-38 fibroblasts; conditions: human, wi-38 cells; read-out: % cell growth W1-38 at 10uM

CYP2C19, sequence (P33261 whole entry, canonical isoform): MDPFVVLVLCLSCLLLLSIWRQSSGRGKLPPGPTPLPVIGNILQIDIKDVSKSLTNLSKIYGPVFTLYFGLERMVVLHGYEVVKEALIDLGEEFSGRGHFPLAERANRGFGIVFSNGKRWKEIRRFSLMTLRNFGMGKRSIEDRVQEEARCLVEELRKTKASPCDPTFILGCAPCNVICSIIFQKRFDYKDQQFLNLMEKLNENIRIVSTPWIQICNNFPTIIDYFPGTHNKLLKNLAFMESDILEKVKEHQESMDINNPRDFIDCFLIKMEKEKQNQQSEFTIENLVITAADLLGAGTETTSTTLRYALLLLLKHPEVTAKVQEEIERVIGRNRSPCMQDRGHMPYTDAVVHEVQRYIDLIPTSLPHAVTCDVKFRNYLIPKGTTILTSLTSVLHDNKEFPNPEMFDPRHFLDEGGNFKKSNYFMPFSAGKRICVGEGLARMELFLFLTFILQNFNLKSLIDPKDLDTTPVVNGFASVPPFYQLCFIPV
CYP2D6, sequence (P10635 whole entry, canonical isoform): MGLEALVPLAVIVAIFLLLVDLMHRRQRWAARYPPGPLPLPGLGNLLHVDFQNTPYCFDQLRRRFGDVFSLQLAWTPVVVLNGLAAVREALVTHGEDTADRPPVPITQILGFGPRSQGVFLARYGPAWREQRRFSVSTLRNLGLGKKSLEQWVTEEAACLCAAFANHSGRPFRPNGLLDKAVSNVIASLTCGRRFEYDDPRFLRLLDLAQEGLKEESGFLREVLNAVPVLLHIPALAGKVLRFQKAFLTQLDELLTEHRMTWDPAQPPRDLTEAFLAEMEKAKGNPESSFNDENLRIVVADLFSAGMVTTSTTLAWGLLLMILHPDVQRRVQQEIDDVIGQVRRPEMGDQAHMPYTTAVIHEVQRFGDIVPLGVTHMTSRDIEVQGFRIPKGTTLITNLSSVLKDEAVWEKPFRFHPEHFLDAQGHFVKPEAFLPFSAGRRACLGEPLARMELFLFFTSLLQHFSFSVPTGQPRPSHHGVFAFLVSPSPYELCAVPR
CYP2C9, sequence (P11712 whole entry, canonical isoform): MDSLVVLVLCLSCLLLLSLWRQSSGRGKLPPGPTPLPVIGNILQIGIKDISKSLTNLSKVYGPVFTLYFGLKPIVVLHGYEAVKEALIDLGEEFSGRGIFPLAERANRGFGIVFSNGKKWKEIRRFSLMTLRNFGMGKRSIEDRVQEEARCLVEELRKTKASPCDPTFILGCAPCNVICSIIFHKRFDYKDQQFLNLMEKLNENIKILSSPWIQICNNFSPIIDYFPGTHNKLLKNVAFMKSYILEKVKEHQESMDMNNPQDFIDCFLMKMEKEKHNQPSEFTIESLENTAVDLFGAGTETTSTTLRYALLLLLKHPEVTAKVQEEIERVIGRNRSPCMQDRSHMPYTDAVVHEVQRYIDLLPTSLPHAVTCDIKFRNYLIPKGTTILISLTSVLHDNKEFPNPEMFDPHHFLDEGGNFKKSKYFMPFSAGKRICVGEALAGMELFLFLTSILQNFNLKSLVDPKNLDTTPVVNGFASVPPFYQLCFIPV
T2 sequence (Q12809 whole entry): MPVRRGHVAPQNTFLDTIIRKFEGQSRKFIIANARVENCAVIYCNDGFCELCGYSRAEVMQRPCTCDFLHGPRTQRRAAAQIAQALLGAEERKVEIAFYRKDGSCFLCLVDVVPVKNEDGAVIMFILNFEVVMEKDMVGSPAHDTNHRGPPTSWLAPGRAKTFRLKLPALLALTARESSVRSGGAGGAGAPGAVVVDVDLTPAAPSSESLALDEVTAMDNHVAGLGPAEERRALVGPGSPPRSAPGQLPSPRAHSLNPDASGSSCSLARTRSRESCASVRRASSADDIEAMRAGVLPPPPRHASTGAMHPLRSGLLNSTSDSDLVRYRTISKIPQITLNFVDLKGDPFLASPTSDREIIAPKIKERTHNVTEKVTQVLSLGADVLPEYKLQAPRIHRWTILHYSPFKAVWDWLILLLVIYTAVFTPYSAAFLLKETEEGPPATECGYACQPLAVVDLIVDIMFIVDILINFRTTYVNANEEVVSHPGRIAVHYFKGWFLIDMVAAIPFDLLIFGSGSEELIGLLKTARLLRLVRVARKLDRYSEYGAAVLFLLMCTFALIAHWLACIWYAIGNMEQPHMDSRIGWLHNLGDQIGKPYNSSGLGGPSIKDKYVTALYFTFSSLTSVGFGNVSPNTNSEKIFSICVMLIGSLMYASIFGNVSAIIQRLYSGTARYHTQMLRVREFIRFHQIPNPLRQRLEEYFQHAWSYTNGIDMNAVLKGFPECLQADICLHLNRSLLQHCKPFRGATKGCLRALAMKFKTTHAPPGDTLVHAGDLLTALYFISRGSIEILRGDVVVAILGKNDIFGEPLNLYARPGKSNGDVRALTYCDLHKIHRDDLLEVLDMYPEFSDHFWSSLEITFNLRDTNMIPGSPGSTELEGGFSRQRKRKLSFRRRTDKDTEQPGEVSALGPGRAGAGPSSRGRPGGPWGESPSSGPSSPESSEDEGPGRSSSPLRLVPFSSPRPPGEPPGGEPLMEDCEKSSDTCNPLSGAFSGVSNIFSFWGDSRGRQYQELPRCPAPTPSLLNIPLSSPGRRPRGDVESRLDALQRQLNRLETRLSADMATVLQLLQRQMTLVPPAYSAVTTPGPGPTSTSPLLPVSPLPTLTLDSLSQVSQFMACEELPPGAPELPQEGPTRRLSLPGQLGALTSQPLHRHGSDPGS
CYP3A4, sequence (P08684 whole entry, canonical isoform): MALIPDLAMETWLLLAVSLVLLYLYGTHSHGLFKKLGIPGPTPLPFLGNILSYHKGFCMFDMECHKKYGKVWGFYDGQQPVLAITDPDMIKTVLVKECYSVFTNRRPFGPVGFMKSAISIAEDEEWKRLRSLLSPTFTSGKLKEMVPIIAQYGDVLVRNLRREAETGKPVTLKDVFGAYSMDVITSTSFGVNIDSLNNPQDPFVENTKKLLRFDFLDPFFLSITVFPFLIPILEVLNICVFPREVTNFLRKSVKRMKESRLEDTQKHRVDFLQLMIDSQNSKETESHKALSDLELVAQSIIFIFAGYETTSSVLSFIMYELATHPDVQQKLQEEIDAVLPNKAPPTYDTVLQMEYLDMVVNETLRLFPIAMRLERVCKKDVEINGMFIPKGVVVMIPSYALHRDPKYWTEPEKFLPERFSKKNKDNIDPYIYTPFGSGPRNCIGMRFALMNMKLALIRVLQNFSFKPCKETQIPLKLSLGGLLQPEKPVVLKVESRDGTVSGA

`Nc1nnc(NCc2ccc(Cl)c(Cl)c2)s1` [4e] showed an inhibition at 50 µM (TbPTR1) of 48.5 ± 2.1%, an IC50 (TbPTR1) of 31 µM and an inhibition at 50 µM ([1]; Trypanosoma brucei, 50 μM) of less than 0%. For the same molecule, the inhibition at 10 µM (hERG) was 75.6 ± 4.4%, the inhibition at 10 µM (CYP1A2) was 29.1 ± 3.4% and the inhibition at 10 µM (CYP2C19) was 36.8 ± 0.9%. For the same molecule, the inhibition at 10 µM (CYP2C9) was 17.6 ± 0.9%, the inhibition at 10 µM (CYP2D6) was 99 ± 0.6% and the inhibition at 10 µM (CYP3A4) was 27.4 ± 6.8%. For the same molecule, the inhibition at 100 µM (hDHFR) was 24%, the inhibition at 10 µM (786-O) was 3.6 ± 8.5% and the viability at 10 µM (in vitro [2]) was 106 ± 2.7%. For the same molecule, the viability at 10 µM (in vitro [3]) was 68.5 ± 18.8%.

For `Nc1nnc(NCc2ccc(C(F)(F)F)cc2)s1` [4f], the inhibition at 50 µM (TbPTR1) was 37.7 ± 0.5%, the IC50 (TbPTR1) was 48 µM and the inhibition at 50 µM ([1]; Trypanosoma brucei, 50 μM) was less than 0%. For the same molecule, the inhibition at 10 µM (hERG) was 69.9 ± 2.3%, the inhibition at 10 µM (CYP1A2) was 24.6 ± 2.5% and the inhibition at 10 µM (CYP2C19) was 11.9 ± 6.6%. For the same molecule, the inhibition at 10 µM (CYP2C9) was 19.5 ± 1.3%, the inhibition at 10 µM (CYP2D6) was 72.4 ± 3.8% and the inhibition at 10 µM (CYP3A4) was 7.8 ± 9.8%. The inhibition at 100 µM (hDHFR) was 19%, the inhibition at 10 µM (786-O) was 9.6 ± 12.5% and the viability at 10 µM (in vitro [2]) was 113 ± 4.8%. For the same molecule, the viability at 10 µM (in vitro [3]) was 80.9 ± 23.6%.

`N#Cc1ccc(CNc2nnc(N)s2)cc1` [4h] showed an inhibition at 50 µM (TbPTR1) of 34.6 ± 3%, an IC50 (TbPTR1) of 70 µM and an inhibition at 50 µM ([1]; Trypanosoma brucei, 50 μM) of less than 0%. For the same molecule, the inhibition at 10 µM (hERG) was 82.6 ± 11.8%, the inhibition at 10 µM (CYP1A2) was 17.1 ± 4.4% and the inhibition at 10 µM (CYP2C19) was -2 ± 6.3%. The inhibition at 10 µM (CYP2C9) was 15 ± 1.4%, the inhibition at 10 µM (CYP2D6) was 62.4 ± 2.9% and the inhibition at 10 µM (CYP3A4) was 7.2 ± 12.7%. The inhibition at 100 µM (hDHFR) was 17%, the inhibition at 10 µM (786-O) was -0.1 ± 9.4% and the viability at 10 µM (in vitro [2]) was 105 ± 2.3%. The viability at 10 µM (in vitro [3]) was 107 ± 24.9%.

For `COc1cccc(CNc2nnc(N)s2)c1` [4i], the inhibition at 50 µM (TbPTR1) was 31 ± 1.3%, the IC50 (TbPTR1) was 56 µM and the “% Inhibition T. brucei at 50 μM” value ([1]; 50 μM) was 95.6%. It also gave an EC50 ([1]; Trypanosoma brucei, read-out: EC50 T. brucei) of 16 µM, an inhibition at 10 µM (hERG) of 108 ± 9.6% and an inhibition at 10 µM (CYP1A2) of 15.9 ± 1.1%. The inhibition at 10 µM (CYP2C19) was 45.9 ± 0.8%, the inhibition at 10 µM (CYP2C9) was 33.5 ± 1.7% and the inhibition at 10 µM (CYP2D6) was 105.2 ± 0.1%. The inhibition at 10 µM (CYP3A4) was 87.7 ± 0.4%, the inhibition at 100 µM (hDHFR) was 28% and the inhibition at 10 µM (786-O) was -15.3 ± 24.3%. The viability at 10 µM (in vitro [2]) was 107 ± 5.8% and the viability at 10 µM (in vitro [3]) was 129 ± 14.1%.

In the case of `COC(=O)C(Cc1ccccc1)Nc1nnc(N)s1` (centres unmarked) [4p, Methyl 2G((5GaminoG1,3,4GthiadiazolG2Gyl)amino)G3Gphenylpropanoate], the inhibition at 50 µM (TbPTR1) is reported as 3.9 ± 0.3%, the inhibition at 50 µM ([1]; Trypanosoma brucei, 50 μM) is reported as 0.4% and the inhibition at 10 µM (hERG) is reported as 28.7 ± 10.5%. It also gave an inhibition at 10 µM (CYP1A2) of -1.5 ± 4.3%, an inhibition at 10 µM (CYP2C19) of -27.4 ± 13.1% and an inhibition at 10 µM (CYP2C9) of -10.9 ± 3%. For the same molecule, the inhibition at 10 µM (CYP2D6) was 47.4 ± 3.3%, the inhibition at 10 µM (CYP3A4) was -12.5 ± 6.8% and the inhibition at 100 µM (hDHFR) was 9%. It also gave an inhibition at 10 µM (786-O) of 1.72 ± 5.2%, a viability at 10 µM (in vitro [2]) of 126 ± 3.5% and a viability at 10 µM (in vitro [3]) of 114 ± 12.7%.

`Nc1nnc(N2CCC(Cc3ccccc3)CC2)s1` [4r, 5G(4GbenzylpiperidinG1Gyl)G1,3,4GthiadiazolG2Gamine] showed an inhibition at 50 µM (TbPTR1) of 8.4 ± 0.3%, an inhibition at 50 µM ([1]; Trypanosoma brucei, 50 μM) of 1.8% and an inhibition at 10 µM (hERG) of 46.5 ± 4.7%. The inhibition at 10 µM (CYP1A2) was 20 ± 1.2%, the inhibition at 10 µM (CYP2C19) was 89.4 ± 2% and the inhibition at 10 µM (CYP2C9) was 45.9 ± 3.3%. It also gave an inhibition at 10 µM (CYP2D6) of 82.7 ± 0.6%, an inhibition at 10 µM (CYP3A4) of 21.7 ± 4.3% and an inhibition at 100 µM (hDHFR) of 13%. For the same molecule, the inhibition at 10 µM (786-O) was -7.3 ± 10.5%, the viability at 10 µM (in vitro [2]) was 111 ± 6.5% and the viability at 10 µM (in vitro [3]) was 92.7 ± 15.7%.
